Bridge positions count the residues as written; N and C are the ends. Ends that are not written are not given here.
Columns and labels:
mGPRC6A (mouse GPRC6A) = target: T1, mGPRC6A (mouse GPRC6A) (Mus musculus, UniProt Q8K4Z6); test: Ca^2+i mobilisation, FlpIn-TREx-HEK293-mGPRC6A cells; format: cell-based
T1 sequence (Q8K4Z6 21-928): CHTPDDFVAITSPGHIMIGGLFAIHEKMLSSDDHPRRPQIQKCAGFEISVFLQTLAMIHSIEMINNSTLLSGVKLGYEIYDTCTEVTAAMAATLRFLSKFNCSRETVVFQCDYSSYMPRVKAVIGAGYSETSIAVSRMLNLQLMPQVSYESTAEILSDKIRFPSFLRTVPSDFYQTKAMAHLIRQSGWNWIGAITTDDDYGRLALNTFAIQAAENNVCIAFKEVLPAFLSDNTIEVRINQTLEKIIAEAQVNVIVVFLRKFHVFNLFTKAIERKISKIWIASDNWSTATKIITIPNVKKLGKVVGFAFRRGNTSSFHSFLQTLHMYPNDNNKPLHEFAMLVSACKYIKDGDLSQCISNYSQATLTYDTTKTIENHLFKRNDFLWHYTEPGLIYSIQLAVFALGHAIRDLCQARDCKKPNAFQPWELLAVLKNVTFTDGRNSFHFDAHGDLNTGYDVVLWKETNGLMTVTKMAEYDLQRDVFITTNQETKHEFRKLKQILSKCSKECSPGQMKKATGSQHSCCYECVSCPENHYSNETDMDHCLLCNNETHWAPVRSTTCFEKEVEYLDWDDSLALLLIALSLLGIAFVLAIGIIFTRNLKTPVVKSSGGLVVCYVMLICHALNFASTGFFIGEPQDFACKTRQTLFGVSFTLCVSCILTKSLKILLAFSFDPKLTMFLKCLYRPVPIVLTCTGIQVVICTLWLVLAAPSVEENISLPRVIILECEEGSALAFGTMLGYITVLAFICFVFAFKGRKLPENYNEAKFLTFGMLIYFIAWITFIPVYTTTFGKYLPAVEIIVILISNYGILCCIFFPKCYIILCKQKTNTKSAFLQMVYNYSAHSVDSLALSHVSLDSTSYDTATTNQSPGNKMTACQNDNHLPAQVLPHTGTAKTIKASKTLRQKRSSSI
Protocol: pcDNA 5/FRT/TO constructs were isogenically integrated into a FlpIn-TREx-HEK293 cell line (Life Technologies). FlpIn-TREx-HEK293-mGPRC6A and FlpIn-TREx-HEK293-hGPRC6A cells were then selected using 600 μg/ml hygromycin and 5 μg/ml blasticidin and grown in culture medium consisting of Dulbecco’s Modified Eagle Medium (DMEM), supplemented with 10% (v/v) foetal bovine serum (FBS) at 37°C in 5% CO2 and were sub-cultured in a 1:3 ratio every 3–4 days. Cells were cultured overnight in the presence of 1 μg/ml tetracycline to induce GPRC6A expression. […] 48 h after transfection, cells were selected using 3 μg/ml puromycin and grown as above.
FlpIn-TREx-HEK293-mGPRC6A cells were seeded into T75 flasks at 70% confluency. Cells were transfected with 15μg of plasmid DNA (Gαq or GαqG66D) with Lipofectamine LTX according to manufacturer's instructions, then incubated for 24h at 37°C in 5% CO2. Cells were plated into 96-well plates (10^5 cells/well) and equilibrated at 37°C in 5% CO2 for 4-6h to adhere, whereupon cells were serum starved overnight at 37°C in 5% CO2. For the assay, cells were washed twice in Ca^2+ assay buffer (150 mM NaCl, 2.6 mM KCl, 1.2 mM MgCl2, 10 mM dextrose, 10 mM HEPES, 2.2 mM CaCl2, 0.5% (w/v) BSA and 4 mM probenecid; pH 7.4). Buffer was then replaced with Ca^2+ assay buffer containing 1μM Fluo-4-AM and incubated for 1h at 37°C in 5% CO2. Cells were washed twice more and replaced with Ca^2+ assay buffer at 37°C. Serial dilutions of test agonists were added by injection in a Flexstation™ (Molecular Devices) and fluorescence was measured at 485nm excitation and 520nm emission wavelengths. Agonist responses were normalised to the peak of response to 100 μM ATP.
(§1) Data for all HEK293 assays represent the mean ± SEM of at least three independent experiments (except cell impedance, n = 2). For GLP-1 release, the data represent mean ± SEM of three to five independent experiments (except for OCN, wash; n = 2). For insulin release assays, data represent the mean ± SEM of three independent experiments (except for islet studies; n = 2). Insulin release data were normalised to the response to vehicle in either low or high [glucose]. Statistical analysis for GLP-1 release data were performed by one-way ANOVA, followed by Sidak’s multiple comparisons test (treating wash / no wash datasets separately). Statistical analyses for insulin release data were performed by two-way ANOVA (with [glucose] and drug treatment as group variables), followed by Sidak’s multiple comparisons test. Where only high [glucose] groups were evaluated, statistical analysis was by one-way ANOVA followed by Sidak’s multiple comparisons test.

mouse pancreatic islets = test: Insulin release from mouse pancreatic islets; format: cell-based; settings: L-arginine 20 mM; *P < 0.05 vs Vehicle; n = 2; S3 Fig B
Protocol: Islets were collagenase-isolated from mice (10 x C57Bl/6; 12–13 weeks; Charles River) and incubated overnight in RPMI (with 10% FBS (v/v), 10 mM HEPES, 100 U/ml penicillin, 100 μg/ml streptomycin, sodium pyruvate and 10 mM glucose) at 37°C in 5% CO2. Islets were seeded into a 96-well plate (4 / well) in Kreb’s buffer containing 2.8 mM glucose and washed twice with the same buffer. 200 μl test drugs were added in Kreb’s buffer with the required concentration of glucose and incubated at 37°C in 5% CO2 for 90 min. The plate was centrifuged for 10 s at 200 g, supernatant recovered and insulin levels detected as described above. This protocol was approved by the IDRS (Institut de Recherches Servier) Institutional Animal Care and Use Committee.
as §1, with “Concentration-response data were analysed using a three or four parameter logistic function (Motulsky & Christopoulos, 2004) to generate estimates of agonist potency (LogEC50). Data” for “Data”

GPRC6A [1] = test system: GPRC6A; set-up: method as in PMID 15576628; settings: chimera with goldfish 5.24 receptor and full length GPRC6A; ref [1]; cited from earlier work
22RV1 / PC-3 = settings: endogenous; ref [9] (supplement list); cited from earlier work
Excerpt: (§2) Supplement pone.0146846.s004.docx, table 1 | column: Functional assay

PC-3 cells = settings: endogenous; ref [18] (supplement list); cited from earlier work
Excerpt: as §2

TC6 = settings: endogenous; ref [11] (supplement list); cited from earlier work
Excerpt: as §2

Unknown species GPRC6A = settings: ref [11] (supplement list); cited from earlier work
Excerpt: as §2

hC6A = settings: ref [9] (supplement list); cited from earlier work
Excerpt: as §2

mC6A = settings: ref [18] (supplement list); cited from earlier work
Excerpt: as §2

GPRC6A [2] = settings: HEK293 cells recombinantly expressing GPRC6A; ref [8], [10]–[12]; cited from earlier work
Excerpt: Additional interest in GPRC6A has emerged due to several studies reporting that it mediates the metabolic and endocrine effects of the de-carboxylated form of the osteoblast-derived peptide, osteocalcin (OCN).

STC-1 cell line = settings: ref [22]; cited from earlier work
Excerpt: Given the range of OCN variants profiled, we propose that species and/or carboxylation status is unlikely to be a cause of the lack of activity in our assays. Other potential explanations are that the species of GPRC6A is critical or that HEK293 cells lack the necessary scaffolding and/or signalling proteins found in cells endogenously expressing GPRC6A. Unfortunately, human GPRC6A was not expressed at the cell surface in our cells, precluding a study of its pharmacology. However, we identified a range of immortalised murine entero-endocrine and pancreatic β-cell lines that express Gprc6a mRNA ...

Question: With `N=C(N)NCCC[C@H](N)C(=O)O` [L-arginine] as the compound, how does the EC50 (mGPRC6A (mouse GPRC6A)) read?
Answer: 15.8 µM

Question: What about the “potency at murine GPRC6A (calcium and inositol phosphate, words)” value (mGPRC6A (mouse GPRC6A); calcium mobilisation and inositol phosphate accumulation, Discussion) of the same compound?
Answer: most potent agonists

Question: What about the “rank order of potency, Ca^2+ mobilisation” value (mGPRC6A (mouse GPRC6A); co-expressing GαqG66D, Fig 1D) of the same compound?
Answer: L-ornithine > L-arginine = L-lysine

Question: And the “glucose-sensitive insulin secretion, L-arginine” value (mouse pancreatic islets)?
Answer: significantly increased GSIS

Question: What about the “agonist response of GPRC6A” value (GPRC6A [1]) of the same compound?
Answer: mediates responses to L-amino acids

Question: And the “PSA, Runx2 expression response” value (22RV1 / PC-3)?
Answer: pERK1/2 – response to Ca^2+, ZnCl2, OCN, Arginine, Testosterone-BSA Proliferation – response to Ca^2+, OCN PSA, Runx2 expression – response to OCN, Arg, R1881 Chemotaxis (22RV1) – response to Ca^2+, OCN

Question: What about the pERK1/2 response (22RV1 / PC-3) of the same compound?
Answer: pERK1/2 – response to Ca^2+, ZnCl2, OCN, Arginine, Testosterone-BSA Proliferation – response to Ca^2+, OCN PSA, Runx2 expression – response to OCN, Arg, R1881 Chemotaxis (22RV1) – response to Ca^2+, OCN

Question: And the pERK1/2 response (PC-3 cells)?
Answer: pERK1/2 – response to Testosterone, L-Arg

Question: What about the “pERK1/2, pPKD1 response” value (TC6) of the same compound?
Answer: pERK1/2, pPKD1 – response to OCN, L-Arg

Question: And the pERK1/2 response (Unknown species GPRC6A)?
Answer: pERK1/2 - response to Ca^2+, L-Arg, OCN.

Question: What about the pERK1/2 response (hC6A) of the same compound?
Answer: pERK1/2 – response to Ca^2+, ZnCl2, OCN, Arginine, Testosterone-BSA

Question: What about the cAMP response (mC6A) of the same compound?
Answer: cAMP – response to Testosterone, L-Arg pERK1/2 – response to Testosterone

Question: For “de-carboxylated OCN: de-carboxylated form of the osteoblast-derived peptide, osteocalcin (YLYQWLGAPVPYPDPLEPRREVCELNPDCDELADHIGFQEAYRRFYGPV; disulfide 23-29 (inferred); not fully specified; printed as YLYQWLGAPVPYPDPLEPRREVCELNPDCDELADHIGFQEAYRRFYGPV-NH2/-COOH; ends not checked; UniProt P02818 52-100, looked up)”, which ERK1/2 phosphorylation (GPRC6A [2]) is on record?
Answer: can stimulate cAMP accumulation or ERK1/2 phosphorylation

Question: What about the cAMP accumulation (GPRC6A [2]) of the same compound?
Answer: can stimulate cAMP accumulation or ERK1/2 phosphorylation

Question: And the GLP-1 release (STC-1 cell line)?
Answer: evoke GLP-1 release

Source: paper PMC4718634, “Murine GPRC6A Mediates Cellular Responses to L-Amino Acids, but Not Osteocalcin Variants” (PLoS ONE, 2016)
